Measured values published in ChEMBL document CHEMBL5143586, “Advances in the Development of Nonpeptide Small Molecules Targeting Ghrelin Receptor” (J Med Chem, 2022).

Assays:
[1] = target: T1, Growth hormone secretagogue receptor type 1 (Homo sapiens, UniProt Q92847); test: Inverse agonist activity at GHS-R1a (unknown origin) relative to control; format: functional
[2] = Binding affinity at mouse pancreas GHS-R1a assessed as inhibition constant; format: tissue-based
[3] = target: T1, Growth hormone secretagogue receptor type 1; test: Binding affinity at GHS-R1a (unknown origin) assessed as inhibition constant
[4] = target: T1, Growth hormone secretagogue receptor type 1; test: Antagonist activity at GHS-R1a (unknown origin) relative to control; format: functional

T1 sequence (Q92847 whole entry): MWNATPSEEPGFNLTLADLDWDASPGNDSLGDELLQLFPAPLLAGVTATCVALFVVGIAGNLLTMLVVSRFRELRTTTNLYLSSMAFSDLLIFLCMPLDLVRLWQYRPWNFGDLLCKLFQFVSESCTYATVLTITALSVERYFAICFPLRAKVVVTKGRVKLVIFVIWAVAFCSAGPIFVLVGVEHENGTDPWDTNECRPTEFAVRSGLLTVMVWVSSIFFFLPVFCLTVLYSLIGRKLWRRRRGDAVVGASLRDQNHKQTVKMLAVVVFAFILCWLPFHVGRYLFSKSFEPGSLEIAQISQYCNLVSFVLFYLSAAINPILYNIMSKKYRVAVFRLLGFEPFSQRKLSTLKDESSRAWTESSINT

SMILES	Emax [1] [%]	Ki [2] [nM]	also measured
CC(C)C[C@H](NC(=O)[C@H](CC(C)C)NC(=O)[C@@H](Cc1c[nH]c2ccccc12)NC(=O)[C@H](Cc1ccccc1)NC(=O)[C@@H](Cc1c[nH]c2ccccc12)NC(=O)[C@@H](N)CCCCN)C(N)=O	-55	–	–
COc1ccc(Cn2c([C@@H](Cc3c[nH]c4ccccc34)NC(=O)CO)nnc2[C@@H](Cc2c[nH]c3ccccc23)NC(=O)[C@H](CC(C)C)NC(=O)[C@H](CC(C)C)NC(C)=O)cc1	–	–	Emax [4]: 0%
Cc1ccccc1-c1nc2ccc(-c3ccc(Cl)cc3)cc2c(=O)n1C[C@@H]1CCCN(CCO[11CH3])C1	–	4	–

Continued, in another order:

Emax [1] [%]	Ki [2] [nM]	SMILES	also measured
–	7	C[C@H]1CN(C(=O)c2ccc(-c3ccc(O[11CH3])cc3)cc2)CCN1C(=O)c1ccc2cc[nH]c2c1	–
-37	–	COc1ccc(Cn2c([C@@H](Cc3c[nH]c4ccccc34)NC(=O)[C@H](CC(C)C)NC(=O)[C@H](CC(C)C)NC(C)=O)nnc2[C@@H](Cc2c[nH]c3ccccc23)NC(=O)[C@@H](N)CCCCN)cc1	Ki [3]: 3 nM
–	16	Cc1ccccc1-c1nc2ccc(-c3ccc(Cl)cc3)cc2c(=O)n1C[C@@H]1CCCN(CC[18F])C1	–
